This note sets out measurements from article PMC5987406, “Antioxidant, anticholinesterase and antifatigue effects of Trichilia catigua (catuaba)” (BMC Complementary and Alternative Medicine, 2018).

Experiment [1] is described as follows: DPPH assay (radical scavenging). As to conditions: 95% confidence interval in parenthesis; linear regression, mean of 3–4 assays. A general note: DPPH is a stable violet radical that fades when it is reduced.
Procedure: The test was based on the protocol of Duarte-Almeida et al. [25], with some modifications. An ethanolic solution of 2,2-diphenyl-1-picryl hydrazyl (DPPH) (Sigma, St. Louis, MO, USA) was prepared in order to produce an absorbance between 0.8 and 0.99 at 517 nm. One hundred microliters of each extract diluted in ethanol (Synth, Diadema, Brazil) at initial concentrations of 0.004, 0.01, 0.04, 0.1, 0.4 and 1.0 mg/mL were pipetted in a cuvette and after the addition of 900 μL of DPPH the cuvette was placed in a spectrophotometer (PG Instruments LTD, Leicestershire, United Kingdom) and read during 2 min at 517 nm. Ethanol (vehicle) was used as control and rutin (Acros Organics, New Jersey, USA) as positive control. The percentage of DPPH scavenger (S) was calculated by the formula: SDPPH = [(Ac - As)/Ac] × 100, where Ac = absorbance for the control and As = absorbance for the sample.
The statistical analysis was carried out using the Statistica® and Graph Pad Prism® software. The EC50 for DPPH and IC50 for acetylcholinesterase were calculated by linear regression using the mean of scavenge or inhibition for each concentration of the tested drugs. […] We adopted a p value of 0.05 as statistically significant.
A further experiment deals with mice. In words: Classical fear conditioning, scopolamine-induced amnesia. In kind it is in vivo. As to conditions: scopolamine 2 mg/kg i.p., not statistically significant. The procedure: Male albino Swiss mice (30-50 g) and male Wistar rats (300-450 g), 3–4 months old, from our vivarium (Department of Psychobiology, UNIFESP) were housed in rooms with 12 h light-dark circle, controlled temperature (21 ± 2 °C), with filtered tap water and food (Nuvilab, Brazil) ad libitum, except during the experiments. The animals were kept in polypropylene cages (4–5 animals each) with pine shavings as bedding material. […] The animals were euthanized in CO2 chamber or by decapitation (in the case of stress by immobilization test). The protocols followed the International Guiding Principles for Biomedical Research Involving Animals and were approved by UNIFESP ethics committee (Comissão de Ética no Uso de Animais, from Universidade Federal de São Paulo, São Paulo, Brazil) - protocol #0752/07.
On the training day, the animals (except the negative control group) received scopolamine (2 mg/kg, i.p. - Sigma, St. Louis, MO, USA) in 0.9% saline 30 min after the extract treatment and 30 min later were placed individually in the context cage dotted with some visual cues. After 2 min of habituation, three electrical shocks (0.3 mA, 1 s duration and interval of 10s) were delivered to the paws of the animal (adapted from Soeiro et al.). […]

With `C[C@@H]1O[C@@H](OC[C@H]2O[C@@H](Oc3c(-c4ccc(O)c(O)c4)oc4cc(O)cc(O)c4c3=O)[C@H](O)[C@@H](O)[C@@H]2O)[C@H](O)[C@H](O)[C@H]1O` [Rutin, rutin], the “DPPH scavenging EC50” value in experiment [1] is 44 (9–216) μg/mL.
With `CN1[C@@H]2C[C@@H](OC(=O)[C@H](CO)c3ccccc3)C[C@H]1[C@@H]1O[C@@H]12` [scopolamine], the “Reduction of freezing time compared with control mice that did not receive scopolamine” value in the experiment on mice was 40.9%.
